Values joined by “and” are separate entries in the source; they are usually repeats but may differ in a detail not shown here. Equal values may be shown once. Toxic doses and inconclusive results are not listed. Rule as the data show it: active = T/C of 150% or more; inactive = T/C below 125%. Square brackets hold non-standard residues; d marks the D form. Peptide text beside a SMILES is read from it. * marks the point of attachment. NMeY = CN[CH](Cc1ccc(O)cc1)C(=O)O; Bn = c1ccc(C*)cc1
System: L1210 leukemia ip in BDF1 mice, survival T/C
Assay: NCI In Vivo Anticancer Drug Screen. Data for tumor model L1210 Leukemia (intraperitoneal) in B6D2F1 (BDF1) mice
Conditions: endpoint: mean survival time, higher = longer survival
Summary of the method: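 Survival endpoint. Drug-treated group vs vehicle group, expressed as T divided by C. Tumor passaged by transplantation.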

[1] = dose: 50.0 mg/kg/injection, schedule: Q01DX009 (ip), vehicle: Klucel (hydroxypropylcellulose) (HPC)
[2] = dose: 100.0 mg/kg/injection, schedule: Q01DX009 (ip), vehicle: Klucel (hydroxypropylcellulose) (HPC)
[3] = dose: 100.0 mg/kg/injection, schedule: Q04DX002 (ip), vehicle: saline with Tween-80
[4] = dose: 200.0 mg/kg/injection, schedule: Q04DX002 (ip), vehicle: saline with Tween-80
[5] = dose: 400.0 mg/kg/injection, schedule: Q04DX002 (ip), vehicle: saline with Tween-80
[6] = dose: 100.0 mg/kg/injection, schedule: Q01DX001 (ip), vehicle: Klucel (hydroxypropylcellulose) (HPC)
[7] = dose: 200.0 mg/kg/injection, schedule: Q01DX001 (ip), vehicle: Klucel (hydroxypropylcellulose) (HPC)
[8] = dose: 200.0 mg/kg/injection, schedule: Q01DX009 (ip), vehicle: Klucel (hydroxypropylcellulose) (HPC)
[9] = dose: 400.0 mg/kg/injection, schedule: Q01DX001 (ip), vehicle: Klucel (hydroxypropylcellulose) (HPC)
[10] = dose: 400.0 mg/kg/injection, schedule: Q01DX009 (ip), vehicle: Klucel (hydroxypropylcellulose) (HPC)
[11] = dose: 100.0 mg/kg/injection, schedule: Q01DX009 (ip), vehicle: saline
[12] = dose: 100.0 mg/kg/injection, schedule: Q04DX003 (ip), vehicle: saline
[13] = dose: 200.0 mg/kg/injection, schedule: Q04DX003 (ip), vehicle: saline
[14] = dose: 100.0 mg/kg/injection, schedule: Q01DX001 (ip), vehicle: carboxymethylcellulose (CMC)
[15] = dose: 100.0 mg/kg/injection, schedule: Q04DX003 (ip), vehicle: Klucel (hydroxypropylcellulose) (HPC)
[16] = dose: 200.0 mg/kg/injection, schedule: Q04DX003 (ip), vehicle: Klucel (hydroxypropylcellulose) (HPC)
[17] = dose: 400.0 mg/kg/injection, schedule: Q04DX003 (ip), vehicle: Klucel (hydroxypropylcellulose) (HPC)
[18] = dose: 25.0 mg/kg/injection, schedule: Q04DX003 (ip), vehicle: Klucel (hydroxypropylcellulose) (HPC)
[19] = dose: 50.0 mg/kg/injection, schedule: Q04DX003 (ip), vehicle: Klucel (hydroxypropylcellulose) (HPC)

Measured: T/C

O/N=C\c1ccccc1
inactive: [1] 92 % of control | [2] 86 % of control

CSc1n[nH]c(Cl)n1
inactive: dose: 25.0 mg/kg/injection, schedule: Q04DX002 (ip), vehicle: saline with Tween-80 98 % of control and 103 % of control | dose: 50.0 mg/kg/injection, schedule: Q04DX002 (ip), vehicle: saline with Tween-80 102 % of control and 106 % of control | [3] 103 % of control and 107 % of control and 114 % of control | [4] 104 % of control and 113 % of control and 90 % of control | [5] 93 % of control

NNc1c(C(N)=O)c2c(N)ncnc2n1C1OC(CO)C(O)C1O (stereo unspecified)
inactive: dose: 100.0 mg/kg/injection, schedule: Q01DX005 (ip), vehicle: saline 96 % of control | dose: 200.0 mg/kg/injection, schedule: Q01DX005 (ip), vehicle: saline 100 % of control

O=C(CCCCCCCCC(=O)c1ccc2ccccc2c1O)c1ccc2ccccc2c1O
inactive: [6] 87 % of control | [2] 94 % of control | [7] 89 % of control | [8] 91 % of control | [9] 105 % of control | [10] 96 % of control

CCOC(=O)CCN1CCOCC1
inactive: [11] 100 % of control | [12] 111 % of control | dose: 200.0 mg/kg/injection, schedule: Q01DX009 (ip), vehicle: saline 101 % of control | [13] 101 % of control | dose: 400.0 mg/kg/injection, schedule: Q01DX009 (ip), vehicle: saline 111 % of control | dose: 400.0 mg/kg/injection, schedule: Q04DX003 (ip), vehicle: saline 101 % of control

CNC(Cc1ccc(OCc2ccccc2)cc1)C(=O)NC(CC(C)C)C(=O)OC (stereo unspecified) (H-[NMeY](Bn)-Leu-OMe; configuration not given here)
inactive: dose: 50.0 mg/kg/injection, schedule: Q01DX009 (ip), vehicle: saline 97 % of control | [11] 100 % of control | [12] 104 % of control | [13] 102 % of control

NC(=O)N/N=C/c1[nH]c(=S)[nH]c(=O)c1Cc1ccc(Br)cc1
inactive: dose: 100.0 mg/kg/injection, schedule: Q01DX001 (ip), vehicle: saline with Tween-80 107 % of control | dose: 200.0 mg/kg/injection, schedule: Q01DX001 (ip), vehicle: saline with Tween-80 95 % of control | dose: 400.0 mg/kg/injection, schedule: Q01DX001 (ip), vehicle: saline with Tween-80 98 % of control

CN1CCN(CCN2CCN(CCCN3c4ccccc4Sc4ccc(Cl)cc43)CC2)C1=O
inactive: [14] 104 % of control

O=[N+]([O-])C1CCC(C2=CSC3CCCCC3N2)CC1 (stereo unspecified)
inactive: [3] 90 % of control | [4] 101 % of control | [5] 116 % of control

CCCCCCCCCCCCCCCSc1ccc2ccccc2c1
inactive: [15] 92 % of control | [16] 91 % of control | [17] 92 % of control

CC(=O)c1ccc(N2C(=O)C=CC2=O)cc1
inactive: [18] 114 % of control | [19] 115 % of control

c1ccc(-c2nnn(-c3ccccc3)n2)cc1
inactive: dose: 100.0 mg/kg/injection, schedule: Q04DX003 (ip), vehicle: saline with Tween-80 94 % of control | dose: 200.0 mg/kg/injection, schedule: Q04DX003 (ip), vehicle: saline with Tween-80 93 % of control | dose: 400.0 mg/kg/injection, schedule: Q04DX003 (ip), vehicle: saline with Tween-80 98 % of control

CCCCCC(C)n1c(C)cc(=O)n1C(C)CCCCC (stereo unspecified)
inactive: dose: 75.0 mg/kg/injection, schedule: Q01DX001 (ip), vehicle: other 92 % of control | dose: 150.0 mg/kg/injection, schedule: Q01DX001 (ip), vehicle: other 97 % of control

OCCSC(SCCO)=C(SCCO)SCCO
inactive: [2] 105 % of control | [15] 97 % of control | [8] 102 % of control | [16] 92 % of control | [10] 96 % of control | [17] 94 % of control

CC(=O)C1=C(O)C(c2ccccc2)c2ccccc21 (stereo unspecified)
inactive: [6] 108 % of control | [15] 100 % of control | [7] 103 % of control | [16] 103 % of control | [9] 100 % of control | [17] 95 % of control

CN(C)/N=C/c1ccc(N(C)C)cc1
inactive: dose: 25.0 mg/kg/injection, schedule: Q01DX009 (ip), vehicle: Klucel (hydroxypropylcellulose) (HPC) 100 % of control | [18] 101 % of control | [1] 112 % of control | [19] 96 % of control | [15] 111 % of control

CCN(CC)C(=O)OC/C=C\CC(Cl)(Cl)Cl
inactive: dose: 50.0 mg/kg/injection, schedule: Q01DX009 (ip), vehicle: saline sonified 97 % of control | dose: 100.0 mg/kg/injection, schedule: Q01DX009 (ip), vehicle: saline sonified 111 % of control | dose: 100.0 mg/kg/injection, schedule: Q04DX003 (ip), vehicle: saline sonified 106 % of control | dose: 200.0 mg/kg/injection, schedule: Q01DX009 (ip), vehicle: saline sonified 94 % of control | dose: 200.0 mg/kg/injection, schedule: Q04DX003 (ip), vehicle: saline sonified 106 % of control | dose: 400.0 mg/kg/injection, schedule: Q04DX003 (ip), vehicle: saline sonified 106 % of control

COc1cc(C)c2c(c1)C(=O)OC2=O
inactive: [6] 105 % of control | [15] 100 % of control | [7] 108 % of control | [16] 103 % of control | [9] 111 % of control | [17] 97 % of control

COC(c1ccccc1)C(Br)C(=O)c1ccccc1 (stereo unspecified)
inactive: dose: 100.0 mg/kg/injection, schedule: Q04DX003 (ip), vehicle: acetone 96 % of control | dose: 200.0 mg/kg/injection, schedule: Q04DX003 (ip), vehicle: acetone 101 % of control | dose: 400.0 mg/kg/injection, schedule: Q04DX003 (ip), vehicle: acetone 95 % of control

CC(=O)C=P(c1ccccc1)(c1ccccc1)c1ccccc1
inactive: dose: 50.0 mg/kg/injection, schedule: Q01DX001 (ip), vehicle: carboxymethylcellulose (CMC) 113 % of control | [14] 97 % of control | dose: 200.0 mg/kg/injection, schedule: Q01DX001 (ip), vehicle: carboxymethylcellulose (CMC) 101 % of control

CSc1ccc(NC(N)=O)cc1
inactive: dose: 100.0 mg/kg/injection, schedule: Q04DX002 (ip), vehicle: Klucel (hydroxypropylcellulose) (HPC) 103 % of control | dose: 200.0 mg/kg/injection, schedule: Q04DX002 (ip), vehicle: Klucel (hydroxypropylcellulose) (HPC) 120 % of control | dose: 400.0 mg/kg/injection, schedule: Q04DX002 (ip), vehicle: Klucel (hydroxypropylcellulose) (HPC) 95 % of control

CC(=O)N(C)c1ccc(NC(=O)Nc2ccccc2F)cc1
inactive: [2] 98 % of control | [8] 95 % of control | [10] 95 % of control

NC(N)=N/N=C/c1ccc[nH]1
inactive: dose: 15.0 mg/kg/injection, schedule: Q01DX Z (ip), vehicle: saline 94 % of control | dose: 30.0 mg/kg/injection, schedule: Q01DX Z (ip), vehicle: saline 99 % of control | dose: 60.0 mg/kg/injection, schedule: Q01DX Z (ip), vehicle: saline 96 % of control | dose: 120.0 mg/kg/injection, schedule: Q01DX Z (ip), vehicle: saline 91 % of control | dose: 120.0 mg/kg/injection, schedule: Q01DX Z (oral), vehicle: saline 105 % of control | dose: 240.0 mg/kg/injection, schedule: Q01DX Z (ip), vehicle: saline 93 % of control | dose: 240.0 mg/kg/injection, schedule: Q01DX Z (oral), vehicle: saline 106 % of control | dose: 480.0 mg/kg/injection, schedule: Q01DX Z (ip), vehicle: saline 98 % of control | dose: 480.0 mg/kg/injection, schedule: Q01DX Z (oral), vehicle: saline 103 % of control | dose: 960.0 mg/kg/injection, schedule: Q01DX Z (oral), vehicle: saline 103 % of control

Cc1nc(SCc2ccc(Cl)cc2)nc(N2CC2)c1Br
inactive: dose: 59.0 mg/kg/injection, schedule: Q01DX Z (ip), vehicle: methylcellulose (MC) 94 % of control | dose: 88.0 mg/kg/injection, schedule: Q01DX Z (ip), vehicle: methylcellulose (MC) 86 % of control | dose: 200.0 mg/kg/injection, schedule: Q01DX Z (ip), vehicle: methylcellulose (MC) 95 % of control

Source: PubChem BioAssay AID248 (DTP/NCI, 2004)
